Laboratory results as given in patent US8981179B2, “Transgenic non-human animal and uses thereof” (Sanofi, priority 2009, dated 2015).

Assays:
[1] = tested on: β-adrenergic receptor (ADβR); experiment: Whole splenocytes CreLuc luciferase assay, ADβR agonist; format: cell-based, mouse; conditions: line 64 whole splenocytes, 10 uM, 4 hours
Method: Whole splenocyte preps isolated from CreLuc mice (line 64) were used to show the effects of general cAMP inducers such as forskolin and rolipram, as well as Gs agonists on luciferase expression (FIG. 16). […] The cell suspension was then passed through a 70 um strainer into a 50 ml conical tube. […] Cells were diluted to 2×10^6/ml, and 100 ul of the cells were plated per well in a 96 well white opaque plate. […] At 24 hours, compounds were added to the plates for an additional 4 hours. The general inducers include rolipram (Sigma R6520), forskolin (Sigma F6886). […] The assay was run in triplicate. After 4 hours, 100 μl of BrightGlo (Promega, Madison, Wis., cat#E2610) and the assay was read on a TopCount luminometer. […] The preparation used in the experiment was a whole splenocyte preparation which is a mixed population of cells.

[2] = tested on: β adrenergic receptors (ADβR); experiment: Primary cortical neurons CreLuc luciferase assay, Gs modulation via ADβR; format: cell-based, mouse; conditions: cortical neurons line 187, day 3, 10 μM, 4 hours
Excerpt: A general schematic of the workflow for the isolation and compound treatment of primary neuronal cells from the CreLuc model is depicted in FIG. 9. Cortices or other brain subregions are removed from embryos, usually embryonic (E) day 17 or 18, but also as early as E14. The individual neurons are then isolated and plated onto 96 well assay plates. Assays are run either in triplicate or quadruplicate. The assays are run from day 3 in culture up until day 7 or day 10 in culture depending on the expression levels of the target GPCR. Compounds are added to the plates then at a set timepoint, Bright Glo (Promega, Cat #E2610) is added to the plates and the assay is then run on a TopCount or other luminometer.
Primary cell cultures from the CreLuc mice may be used to screen compounds that are capable of modulating Gs coupled receptors. Neurons were isolated from the cortices of line 187 E18 embryos. […] The assay was run in triplicates on day three in culture. Forskolin was used at 5 μM, rolipram at 10 μM and the Gs agonists, ADβR-isoproterenol; and Dopamine-SKF82958 (MFG, Cat #C130) at 10 μM. At 4 hours, Bright Glo was added and the assays run on a Topcount. Forskolin is a general activator of cAMP. […] Forskoline and rolipram act synergistically to increase luciferase expression. […]

ADβR [3] = experiment: Isolated CD4+ T cells CreLuc luciferase assay, ADβR agonist; format: cell-based, mouse; conditions: line 64 CD4+ T cells, anti CD3 24 hours, 10 μM, 4 hours
Method: The effects of different Gs agonists on luciferase levels in anti CD3 stimulated CD4+ T cells isolated from CreLuc mice was studied (FIG. 19). Whole splenocyte populations were prepared by mechanical disruption. CD4+ cells were then isolated by MACS Magnetic Separation with Positive Selection (Miltenyi Biotec cat#130-049-201). The cells, 1.5×10^5 per well, were then plated on 96 well white opaque plates and then stimulated with anti CD3 antibodies (BD Pharmingen cat#553058). After 24 hours, compounds were added for an additional 4 hours. Gs agonists for DP (B[…]), EP2 (EX00000173A) and ADβR (isoproterenol) were all used at 10 μM. Forskolin 5 μM, and rolipram 10 μM. BrightGlo (Promega, Madison, Wis., cat#E2610) was added and the assay was read on the TopCount. A 25-fold increase is observed in cells treated with forskolin and rolipram. […] The transgene was responsive to specific Gs agonists as well as general modulators of the cAMP pathway.

ADβR [4] = experiment: Mouse embryonic fibroblasts CreLuc luciferase assay, ADβR agonist; format: cell-based; conditions: six independent CreLuc lines, 10 μM isoproterenol
Method: The effects of forskolin, rolipram and isoproterenol on luciferase expression in mouse embryonic fibroblasts was investigated (FIG. 33). Mouse embryonic fibroblasts were cultured from E12 embryos from six independent CreLuc lines. Cells were plated at 20,000 cells per well. Compounds tested include 10 μM forskolin, 5 μM rolipram and 10 μM isoproterenol (ADβR agonist).

ADRβ = experiment: Primary striatal neurons CreLuc luciferase assay, ADβR agonist; format: cell-based, mouse; conditions: striatal neurons line 187, day 4, 10 μM, 3 μM and 1 μM, 5 hours
Excerpt: Any cell culture derived from the CreLuc mice may be used to screen compounds for the ability to modulate GPCRs. Luciferase expression was induced in CreLuc striatal neurons by forskolin and rolipram, and Gs agonists for DRD1 and ADβR (FIG. 16). Striatum neurons were isolated from E14 embryos. The assays were run at day 4 in culture. […]. Thus, the transgene is functional in striatal as well cortical neurons (see FIG. 10).

[5] = tested on: cAMP pathway (CreLuc luciferase reporter) in brain slices; experiment: Whole brain slice luminescence, cAMP pathway activators; format: cell-based, mouse; conditions: line 187, 1 uM isoproterenol, 2 days
Method: In general, brains from CreLuc mice can be harvested and then either cut into slices on a microtome or various subregions can also be dissected out and then sliced on a microtome. The slices can then be incubated with different compounds such as forskolin and rolipram, or GPCR specific compounds. Luciferase levels can then be measured with an IVIS bioimager or a photomultiplier with a carousel to take quantitative timecourse measurements.
Thus, isoproterenol was used to increase the luciferase signal window which allows for screening GPCR specific compounds such as Gi agonists.
Compound activity can also be quantitated over time in a viable brain slice and luciferase expression can be visualized by a bioimager. […] Forskolin is a general activator of cAMP.

ADβR [6] = experiment: Cardiomyocytes CreLuc luciferase assay, ADβR agonist; format: cell-based, mouse; conditions: cardiomyocytes line 229, 10 μM isoproterenol
Method: The effects of forskolin and rolipram and isoproterenol on luciferase levels in cardiomyocytes was studied (FIG. 35). Cardiomyocytes were isolated from P3 pups from line 229. The cells were cultured in a 96 well plate. Compounds tested include 10 μM forskolin, 5 μM rolipram and 10 μM isoproterenol (ADβR agonist).

CRE Luc reporter = experiment: In vivo bioluminescence imaging of CreLuc transgenic mouse after isoproterenol; conditions: bioimaging
Method: Administration of isoproterenol (right panel) increases spinal cord expression of the CRE Luc reporter compared to basal levels (left panel). The bioluminescent detection is represented visually on a white-light image of the animal as a pseudocolor representation in grayscale. […] For in vivo assays, the animals are dosed with luciferin only and then bioimaged on an IVIS bioimager to get baseline signal. The animals are then dosed with compound, and then bioimaged again at a set timepoint to examine the effects of the compound on the luciferase signal. Data can be analyzed as the fold induction of the induced signal versus the baseline signal. For the ex vivo assays, mice are dosed with either compound or vehicle, and then at a set timepoint, tissues are harvested and frozen. The tissues can then be homogenized and a luciferase assay such as Promega Luciferase assay system (Promega cat #E1500) run on the tissue extracts and the assay read on a luminometer such as the Topcount. Data can be analyzed as the relative light units per μg protein, comparing vehicle versus compound groups.

CC(C)NCC(O)c1ccc(O)c(O)c1 (centres unmarked) [isoproterenol]
luciferase versus DMSO only control (t-test) [1]: Statistically significant increases | increased luci levels vs DMSO control [2]: 11 fold | increase of luciferase (ADβR [3]): 5 fold | luciferase expression in mouse embryonic fibroblasts (ADβR [4]): Significant increases were also observed in three of the lines | luciferase expression (ADRβ): Significant increases | luciferase expression in hippocampal brain slices [5]: induces luciferase expression levels | increase in luciferase levels (ADβR [6]): 2 fold | spinal cord expression of the CRE Luc reporter compared to basal levels (CRE Luc reporter): increases
